From patent publication US11707503B2, “Modulators of complement activity” (Ra Pharmaceuticals, Inc., priority 2015, dated 2023)
Entries after “also recorded” stand apart in the source; their conditions may differ. Starred links: 1 amine or outer side, 2 acyl side, 3 side chain; linkers in the order of their positions; H or OH if unused. Positions of bridges follow the written chain, without caps; N, C: chain ends. Non-standard residues stand in square brackets, D forms with d. Residues, ends and D or L forms follow the SMILES beside them. Trp(7-aza) = N[C@@H](Cc1c[nH]c2ncccc12)C(=O)O; Tiq1c(1S) = O=C(O)[C@H]1NCCc2ccccc21; mXylylene = c1cc(C[*:1])cc(C[*:2])c1; pXylylene = c1cc(C[*:2])ccc1C[*:1]; Phg = N[C@H](C(=O)O)c1ccccc1; Tle = CC(C)(C)[C@H](N)C(=O)O; NMeS = CN[C@@H](CO)C(=O)O; hCys = N[C@@H](CCS)C(=O)O; Nva = CCC[C@H](N)C(=O)O

These compounds were tested against T1, C5 (Homo sapiens, UniProt P01031) (assay: Human hemolysis assay (RBC lysis assay using complete human sera)). Details: antibody-sensitized sheep erythrocytes, complete human sera.
Type: cell-based
Parameters: with complete human sera (Complement Technology, Tyler Tex.) and polypeptides; tissue Complement Technology, Tyler Tex; host or cells: complete human serum
Method: Polypeptides listed in Table 3, as well as their optimized derivatives (see Table 4) were assessed for inhibitor activity using a red blood cell hemolysis assay. […] Human sera was rapidly thawed at 37° C. and then stored on ice until diluted into GVB++. Ten 6-fold serial dilutions of polypeptides (10 mM stock, DMSO) were performed in DMSO and then added to buffer. 50 μl of each polypeptide dilution was combined with sera and 100 μl of cells in individual wells of a 96-well tissue culture-treated clear microtitre plate (USA Scientific, Ocala, Fla.) and resuspended by pipetting. Samples were incubated at 37° C. for one hour. […] Data was fit with a log-logit formula producing a dose-response curve and IC50. As used herein, the term “IC50” refers to the half maximal inhibitory concentration, a value used to indicate the amount of the inhibitor needed to reduce a given reaction or process by half.
The human constant light chain kappa and IgG2 constant heavy chain sequences were used for the constants regions of the antibody. This antibody was expressed from human embryonic kidney cells (HEK293) and purified by Protein A affinity chromatography. […] Human sera was rapidly thawed at 37° C. and then stored on ice until diluted into GVB++. Ten 6-fold serial dilutions of each compound (10 mM stock, DMSO) were performed in DMSO and then added to buffer. 50 μl of each compound dilution was combined with sera and 100 μl of cells in individual wells of a 96-well tissue culture-treated clear microtitre plate (USA Scientific, Ocala, Fla.) and resuspended by pipetting. Samples were incubated at 37° C. for one hour. […] Data was fit with a log-logit formula producing a dose-response curve and IC50 (see FIG. 11A).

T1 sequence (P01031 678-1676 limits assumed): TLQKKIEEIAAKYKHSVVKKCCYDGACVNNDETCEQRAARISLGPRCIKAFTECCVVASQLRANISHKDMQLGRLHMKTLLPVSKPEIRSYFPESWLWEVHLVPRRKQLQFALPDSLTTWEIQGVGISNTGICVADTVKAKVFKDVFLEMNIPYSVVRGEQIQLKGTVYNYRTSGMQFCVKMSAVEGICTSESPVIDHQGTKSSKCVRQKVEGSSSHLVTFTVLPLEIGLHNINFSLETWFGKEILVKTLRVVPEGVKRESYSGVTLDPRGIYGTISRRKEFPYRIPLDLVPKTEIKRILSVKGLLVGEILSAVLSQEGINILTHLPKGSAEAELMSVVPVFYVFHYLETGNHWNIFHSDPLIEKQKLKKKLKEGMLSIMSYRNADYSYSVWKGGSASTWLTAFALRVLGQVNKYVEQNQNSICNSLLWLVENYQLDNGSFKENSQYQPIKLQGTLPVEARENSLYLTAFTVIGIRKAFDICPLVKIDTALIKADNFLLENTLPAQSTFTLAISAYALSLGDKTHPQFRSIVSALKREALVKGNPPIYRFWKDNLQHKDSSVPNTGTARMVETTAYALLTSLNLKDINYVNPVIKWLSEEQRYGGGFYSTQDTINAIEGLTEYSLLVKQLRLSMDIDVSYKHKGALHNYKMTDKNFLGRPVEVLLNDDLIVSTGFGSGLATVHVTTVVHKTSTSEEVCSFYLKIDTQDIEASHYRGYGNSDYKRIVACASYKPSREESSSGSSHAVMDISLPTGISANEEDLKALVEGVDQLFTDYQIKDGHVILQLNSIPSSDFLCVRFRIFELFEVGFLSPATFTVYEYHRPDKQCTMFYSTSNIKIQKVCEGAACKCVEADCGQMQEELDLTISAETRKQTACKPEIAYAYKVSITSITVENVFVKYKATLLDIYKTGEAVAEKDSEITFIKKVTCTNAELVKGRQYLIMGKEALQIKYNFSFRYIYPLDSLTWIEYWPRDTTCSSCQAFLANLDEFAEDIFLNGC
T1 sequence (P01031 19-673 limits assumed): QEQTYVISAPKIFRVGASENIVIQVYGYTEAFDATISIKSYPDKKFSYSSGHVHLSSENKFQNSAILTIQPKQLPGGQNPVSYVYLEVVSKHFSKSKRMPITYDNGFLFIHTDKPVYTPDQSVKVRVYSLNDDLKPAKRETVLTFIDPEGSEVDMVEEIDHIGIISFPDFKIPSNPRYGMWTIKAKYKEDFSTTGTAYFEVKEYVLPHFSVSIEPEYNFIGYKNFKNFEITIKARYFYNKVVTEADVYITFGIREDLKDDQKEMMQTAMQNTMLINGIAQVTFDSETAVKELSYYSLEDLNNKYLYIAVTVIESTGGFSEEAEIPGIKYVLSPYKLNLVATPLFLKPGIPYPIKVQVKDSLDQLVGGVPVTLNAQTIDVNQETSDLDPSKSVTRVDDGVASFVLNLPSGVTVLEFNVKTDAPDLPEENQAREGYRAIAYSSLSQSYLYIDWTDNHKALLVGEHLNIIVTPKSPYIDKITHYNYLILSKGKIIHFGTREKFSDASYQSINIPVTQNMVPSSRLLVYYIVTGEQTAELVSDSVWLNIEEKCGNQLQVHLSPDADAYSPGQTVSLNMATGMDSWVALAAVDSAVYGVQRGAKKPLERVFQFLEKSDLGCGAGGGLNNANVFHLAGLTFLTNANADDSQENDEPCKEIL

Compound	IC50 [µM]
CCC[C@H](NC(=O)[C@@H]1CCSCc2ccc(cc2)CSCC[C@H](NC(=O)[C@H](CCC)NC(C)=O)C(=O)N[C@@H](c2ccccc2)C(=O)N[C@@H]([C@@H](C)O)C(=O)N[C@@H](Cc2c[nH]c3ncccc23)C(=O)N[C@@H](CCC(=O)O)C(=O)N[C@@H](Cc2ccc(O)cc2)C(=O)N(C)[C@@H](CO)C(=O)N[C@@H](Cc2c[nH]cn2)C(=O)N1)C(N)=O [Compound R3108, [pXylyl(2,10)]Ac-Nvl-homoC-Phg-T-azaTrp-E-Y-(N—Me)S-H-homoC-Nvl-NH2] (Ac-[Nva][hCys][Phg]T[Trp(7-aza)]EY[NMeS]H[hCys][Nva]-NH2; linker 2-10 via pXylylene)	> 75
CC(=O)N[C@H]1CSCc2cccc(c2)CSC[C@@H](C(N)=O)NC(=O)[C@H](Cc2c[nH]cn2)NC(=O)[C@H](CO)N(C)C(=O)[C@H](Cc2ccc(O)cc2)NC(=O)[C@H](CCC(=O)O)NC(=O)[C@H](Cc2c[nH]c3ncccc23)NC(=O)[C@H]([C@@H](C)O)NC(=O)[C@H](c2ccccc2)NC1=O [Compound R3015, [mXylyl(1,9)]Ac-C-Phg-T-azaTrp-E-Y-(N—Me)S-H-C-NH2] (Ac-C[Phg]T[Trp(7-aza)]EY[NMeS]HC-NH2; linker 1-9 via mXylylene)	> 3.96
CCC[C@H](NC(=O)[C@@H]1CSCc2cccc(c2)CSC[C@H](NC(=O)[C@H](CCC)NC(C)=O)C(=O)N2CCc3ccccc3[C@H]2C(=O)N[C@@H]([C@@H](C)O)C(=O)N[C@@H](Cc2c[nH]c3ncccc23)C(=O)N[C@@H](CCC(=O)O)C(=O)N[C@@H](Cc2ccc(O)cc2)C(=O)N(C)[C@@H](CO)C(=O)N[C@@H](Cc2c[nH]cn2)C(=O)N1)C(N)=O [Compound R3122, [mXylyl(2,10)]Ac-Nvl-C-Tiq-T-azaTrp-E-Y-(N—Me)S-H-C-Nvl-NH2] (Ac-[Nva]C[Tiq1c(1S)]T[Trp(7-aza)]EY[NMeS]HC[Nva]-NH2; linker 2-10 via mXylylene)	> 50
CCC[C@H](NC(=O)[C@@H](NC(=O)[C@@H]1CCCN1C(=O)[C@H](Cc1ccc(O)cc1)NC(=O)[C@H](CCC(=O)O)NC(=O)[C@H](Cc1c[nH]c2ncccc12)NC(=O)[C@H](Cc1ccc(O)cc1)NC(=O)[C@@H](NC(=O)[C@H](CC(=O)O)NC(=O)[C@@H]1CSCc2cccc(c2)CSC[C@H](NC(C)=O)C(=O)N[C@@H](C(C)C)C(=O)N[C@@H](C)C(=O)N[C@@H](CCCNC(=N)N)C(=O)N[C@@H](Cc2ccccc2)C(=O)N1)C(C)(C)C)c1ccccc1)C(N)=O [Compound R3150, [mXylyl(1,6)]Ac-C-V-A-R-F-C-D-Tbg-Y-azaTrp-E-Y-P-Phg-Nvl-NH2] (Ac-CVARFCD[Tle]Y[Trp(7-aza)]EYP[Phg][Nva]-NH2; linker 1-6 via mXylylene)	0.032

Same assay, conditions: relative to parent polypeptide

Compound	change in ability to inhibit red blood cell lysis in words
CC(=O)N[C@H]1CSCc2cccc(c2)CSC[C@@H](C(=O)N[C@H](C(=O)N[C@@H](Cc2ccc(O)cc2)C(=O)N[C@@H](Cc2c[nH]c3ccccc23)C(=O)N[C@@H](CCC(=O)O)C(=O)N[C@@H](Cc2ccccc2)C(N)=O)C(C)C)NC(=O)[C@H](Cc2ccccc2)NC(=O)[C@H](CCCNC(=N)N)NC(=O)[C@H](CCC(=O)O)NC(=O)[C@H](C(C)C)NC1=O [Compound R3124, [mXylyl(1,6)]Ac-C-V-E-R-F-C-V-Y-W-E-F-NH2] (Ac-CVERFCVYWEF-NH2; linker 1-6 via mXylylene)	decrease in the ability
CC(=O)N[C@H]1CSCc2cccc(c2)CSC[C@@H](C(=O)N[C@@H](CC(=O)O)C(=O)N[C@H](C(=O)N[C@@H](Cc2ccc(O)cc2)C(=O)N[C@@H](Cc2c[nH]c3ccccc23)C(=O)N[C@@H](CCC(=O)O)C(=O)N[C@@H](Cc2ccccc2)C(N)=O)C(C)C)NC(=O)[C@H](Cc2ccccc2)NC(=O)[C@H](CCCNC(=N)N)NC(=O)[C@H](CCC(=O)O)NC(=O)[C@H](C(C)C)NC1=O [Compound R3048, [mXylyl(1,6)]Ac-C-V-E-R-F-C-D-V-Y-W-E-F-NH2] (Ac-CVERFCDVYWEF-NH2; linker 1-6 via mXylylene)	increased the ability
CC(=O)N[C@H]1CSCc2cccc(c2)CSC[C@@H](C(=O)N[C@@H](Cc2c[nH]c3ccccc23)C(=O)N[C@@H](CCC(=O)O)C(=O)N[C@@H](Cc2ccccc2)C(N)=O)NC(=O)[C@H](Cc2ccccc2)NC(=O)[C@H](CCCNC(=N)N)NC(=O)[C@H](CCC(=O)O)NC(=O)[C@H](C(C)C)NC1=O [Compound R3125, [mXylyl(1,6)]Ac-C-V-E-R-F-C-W-E-F-NH2] (Ac-CVERFCWEF-NH2; linker 1-6 via mXylylene)	decrease in the ability

The compounds below were run against T1, C5 (assay: Competitive fluorescence polarization (FP) binding assay with probe R3076). Details: not given.
Parameters: purchased Complement Technology, Tyler, Tex
Method: FP was used for screening competitive polypeptide inhibitors of the C5 protein. […] The BODIPY-TMR dye attached to the C-terminal lysine of the protein and the subsequent labeled probe was purified by HPLC.
Human C5 protein was diluted to 200 nM in assay buffer, composed of TBS (EMD Millipore, Billerica, Mass.)+0.005% Triton-X (Sigma, Saint Louis, Mo.). 10 μl of assay buffer was added to all wells of a black, non-binding, 384-well assay plate (Greiner, Monroe, N.C.) and 10 μl of diluted C5 protein stock was added to experimental and designated control wells.
Probe R3076 (SEQ ID NO: 40) was diluted 1 to 10 in DMSO (Life Technologies, Grand Island, N.Y.) and 30 μl of that stock was diluted in 3 ml of assay buffer to yield a 100 nM stock. 10 μl of this working stock was then added to each well in the assay plate. The assay plate was incubated at room temperature, protected from light, for 20 minutes to allow binding to reach equilibrium.
Test articles listed in Table 7 were subsequently diluted in DMSO then assay buffer, comprising 10 2-fold dilutions and were then added to the assay plate in triplicate, rapidly. The assay plate was then incubated in the Paradigm (Molecular Devices, Sunnyvale, Calif.) plate reader for 60 minutes at 25° C.
After incubation for 60 minutes, the plate was read using the Paradigm FP protocol (Molecular Devices, Sunnyvale, Calif.) and raw polarization values were imported into Graphpad Prism.

Compound	competition for / affinity for C5 in words
CCC[C@H](NC(C)=O)C(=O)N[C@H]1CSCc2cccc(c2)CSC[C@@H](C(=O)N[C@@H](CCC)C(=O)N2CCC[C@H]2C(N)=O)NC(=O)[C@H](Cc2c[nH]cn2)NC(=O)[C@H](CO)N(C)C(=O)[C@H](Cc2ccc(O)cc2)NC(=O)[C@H](CCC(=O)O)NC(=O)[C@H](Cc2c[nH]c3ncccc23)NC(=O)[C@H]([C@@H](C)O)NC(=O)[C@H](c2ccccc2)NC1=O [Compound R3011, [mXylyl(2,10)]Ac-Nvl-C-Phg-T-azaTrp-E-Y-(N—Me)S-H-C-Nvl-P-NH2] (Ac-[Nva]C[Phg]T[Trp(7-aza)]EY[NMeS]HC[Nva]P-NH2; linker 2-10 via mXylylene)	relatively strong affinity
CSCC[C@H](N)C(=O)N[C@H]1CSCc2cccc(c2)CSC[C@@H](C(=O)N[C@@H](CC(=O)O)C(=O)N[C@H](C(=O)N[C@@H](Cc2ccc(O)cc2)C(=O)N[C@@H](Cc2c[nH]c3ccccc23)C(=O)N[C@@H](CCC(=O)O)C(N)=O)C(C)C)NC(=O)[C@H](Cc2ccccc2)NC(=O)[C@H](CCCNC(=N)N)NC(=O)[C@H](CCC(=O)O)NC(=O)[C@H](C(C)C)NC1=O [Compound R3043, [mXylyl(2,7)]M-C-V-E-R-F-C-D-V-Y-W-E-NH2] (H-MCVERFCDVYWE-NH2; linker 2-7 via mXylylene)	weak affinity
CCC[C@H](NC(=O)[C@H](Cc1ccc(O)cc1)NC(=O)[C@H](CC(N)=O)NC(=O)[C@H](CCC)NC(=O)[C@H](CCC(=O)O)NC(=O)[C@@H](NC(=O)[C@H](Cc1c[nH]c2ncccc12)NC(=O)[C@@H](NC(=O)[C@H](CS)NC(=O)[C@H](Cc1ccc(O)cc1)NC(=O)[C@@H]1CCCN1C(=O)[C@H](Cc1ccc(O)cc1)NC(C)=O)c1ccccc1)C(C)(C)C)C(=O)N[C@@H](CCC(=O)O)C(N)=O [Compound R3023, Ac-Y-P-Y-C-Phg-azaTrp-Tbg-E-Nvl-N-Y-Nvl-E-NH2] (Ac-YPYC[Phg][Trp(7-aza)][Tle]E[Nva]NY[Nva]E-NH2)	no activity at the highest concentration tested; also recorded: not detected at the highest concentration tested; also recorded: no affinity
CCC[C@H](NC(=O)[C@@H]1CCCN1C(=O)[C@H](CCC)NC(=O)[C@@H]1CSCc2cccc(c2)CSC[C@H](NC(C)=O)C(=O)N[C@@H](c2ccccc2)C(=O)N[C@@H]([C@@H](C)O)C(=O)N[C@@H](Cc2c[nH]c3ncccc23)C(=O)N[C@@H](CCC(=O)O)C(=O)N[C@@H](Cc2ccc(O)cc2)C(=O)N(C)[C@@H](CO)C(=O)N[C@@H](Cc2c[nH]cn2)C(=O)N1)C(N)=O [Compound R3014, [mXylyl(1,9)]Ac-C-Phg-T-azaTrp-E-Y-(N—Me)S-H-C-Nvl-P-Nvl-NH2] (Ac-C[Phg]T[Trp(7-aza)]EY[NMeS]HC[Nva]P[Nva]-NH2; linker 1-9 via mXylylene)	weak affinity
CCC[C@H](NC(C)=O)C(=O)N[C@@H](CS)C(=O)N[C@@H](Cc1ccc(O)cc1)C(=O)N[C@@H](CCC(=O)O)C(=O)N[C@@H](CC(N)=O)C(=O)N[C@H](C(=O)N[C@@H](Cc1ccc(O)cc1)C(=O)N[C@@H](Cc1c[nH]c2ncccc12)C(=O)N[C@@H](CCC(=O)O)C(=O)N[C@@H](Cc1ccc(O)cc1)C(=O)N1CCC[C@H]1C(=O)N[C@H](C(=O)N1CCC[C@H]1C(N)=O)c1ccccc1)C(C)(C)C [Compound R3003, Ac-Nvl-C-Y-E-N-Tbg-Y-azaTrp-E-Y-P-Phg-P-NH2] (Ac-[Nva]CYEN[Tle]Y[Trp(7-aza)]EYP[Phg]P-NH2)	most potent
